Drawing on publication PMC10644352, “Bromodomain Factor 5 as a Target for Antileishmanial Drug Discovery” (ACS Infectious Diseases, 2023), this text covers IC50 and Kd for two compounds.

Experiment [1] addresses T1, bromodomain factor 5 (LdBDF5), second bromodomain BD5.2 (Leishmania donovani, UniProt A0ACM8QMJ0).
T1 construct: gene CGC21_36735; BD5.2 (second bromodomain of the N-terminal tandem repeat)
T1 sequence (A0ACM8QMJ0 161-300): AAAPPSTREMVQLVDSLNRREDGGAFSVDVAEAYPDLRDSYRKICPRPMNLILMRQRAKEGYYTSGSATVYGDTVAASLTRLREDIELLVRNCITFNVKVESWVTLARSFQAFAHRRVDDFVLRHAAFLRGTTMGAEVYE
Nature of the experiment: FP competition (also TSA shift; waterLOGSY and CPMG NMR positive, STD inconclusive). Format: binding.

Experiment [2] deals with T2, bromodomain factor 5 (LdBDF5), first bromodomain BD5.1 (Leishmania donovani, UniProt A0ACM8QMJ0).
T2 construct: gene CGC21_36735; BD5.1 (first bromodomain of the N-terminal tandem repeat)
Nature of the experiment: ITC (also MST Kd […], FP competition IC50 […], TSA, waterLOGSY/STD/CPMG NMR). Format: binding.

What is called IC50 is the midpoint of a concentration-inhibition curve. The term Kd denotes a measure of binding affinity in units of concentration.

Molecules are shown by their SMILES.

With `CCn1cc(-c2cccc(C(F)(F)F)c2)c2sc(C(=N)NC3CCS(=O)(=O)CC3)cc2c1=O` [I-BRD9], in experiment [1], the IC50 stood at 24.7 ± 6.2 µM.
The compound `COc1ccc(CCc2nc3cc(-c4c(C)noc4C)ccc3n2C[C@H](C)N2CCOCC2)cc1Cl` [SGC–CBP30] had a Kd in experiment [2] of 0.281 ± 0.0123 µM.
